Assay [1] concerns B16-GMCSF melanoma. Kind of assay: B16-GMCSF melanoma model. Type of assay: in vivo, mouse. Conditions: intradermal implants, C57BL/6 mice, 3 mg/kg oral daily, day 19, vs vehicle, n=5.
Assay [2] relates to human iPSC-DCs. Kind of assay: Activation of human iPSC-derived DCs by flow cytometry. Particulars: vitamin E 50 μg/ml or TPI-1 1 μg/ml, 72 h, gated on CD11c+. Type of assay: cell-based. An excerpt:
FIG. 10A: Representative high magnification photomicrographs (100×, 200×, 400×) illustrating the morphology of colonies and individual cells of fully differentiated iPSC-derived DCs (iPSC-DCs) displaying characteristic DC morphology consisting of protrusions and veils of cytoplasm at the end of the differentiation procedure (day 23) after using the differentiation protocol for the addition and withdrawal of growth factors and cytokines. FIG. 10B: Phenotypic characterization of generated human iPSC-DCs. Representative flow cytometry analysis depicting the expression of DC lineage markers by iPSC-DCs gated on the CD11c+ population. Levels of expression of individual markers are shown as red histograms, while non-specific staining by isotype controls is shown as light blue histograms. FIG. 10C: Phenotypic characterization of human iPSC-DCs after treatment with vitamin E or TPI-1 to inhibit SHP1. Representative flow cytometry analysis (left panel) and quantification (right panel) depicting the expression of indicated activity markers by iPSC-DCs gated on the CD11c+population with the treatment of vehicle, vitamin E (50 μg/ml) or TPI-1 (1 μg/ml) for 72 h.
We explored the feasibility of differentiating populations of primary DCs from iPSCs and characterized the phenotype of iPSC-DC with the pharmacological inhibition of SHP1 by vitamin E or TPI-1. […]
(In general: In flow cytometry, cells or beads pass a laser one at a time.)

Take `O=C1C=CC(=O)C(c2cc(Cl)ccc2Cl)=C1` [TPI-1, 2-(2,5-dichlorophenyl)-2,5-cyclohexadiene-1,4-dione]: the mean tumor volume result in assay [1] is “significantly smaller tumor volume”. Besides, in assay [2], the “expression of DC activation markers on iPSC-DCs” value was “increased expression of DC activation markers CD40 and CD86”.
